Measured values reported in paper PMC6393295, “Archaeal NSUN6 catalyzes m^5C72 modification on a wide-range of specific tRNAs” (Nucleic Acids Research, 2018).
Values belong to the molecule of their own block, whether it stands above or below them.

Columns and labels:
[1] = target: T1, PhNSun6 (PH1991) (Pyrococcus horikoshii, UniProt O57712); assay: X-ray crystal structure of the complex, […] A; type: binding; settings: co-crystallised with 1 mM ligand, pH 6.5, 16 °C; Rossmann-fold cofactor site; no tRNA
T1 construct: full length (domains mapped to residues 1-389); E. coli Rosetta (DE3); 2 chains in P1 crystal
T1 sequence (O57712 1-389): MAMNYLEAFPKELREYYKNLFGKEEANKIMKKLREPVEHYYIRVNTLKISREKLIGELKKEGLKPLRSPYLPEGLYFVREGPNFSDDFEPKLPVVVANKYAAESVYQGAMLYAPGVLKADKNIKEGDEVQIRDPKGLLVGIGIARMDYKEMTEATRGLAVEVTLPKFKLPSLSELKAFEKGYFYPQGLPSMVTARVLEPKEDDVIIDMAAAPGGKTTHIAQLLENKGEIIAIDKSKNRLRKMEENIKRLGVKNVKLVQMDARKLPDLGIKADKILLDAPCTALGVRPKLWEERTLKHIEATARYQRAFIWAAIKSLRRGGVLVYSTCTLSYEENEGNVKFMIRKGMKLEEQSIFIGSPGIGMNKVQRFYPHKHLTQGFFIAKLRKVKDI

[2] = target: T1, PhNSun6 (PH1991); assay: X-ray crystal structure of the complex, […] A; type: binding; settings: co-crystallised with 1 mM ligand, pH 6.5, 16 °C, Rossmann-fold cofactor site, no tRNA

Structure (SMILES): Nc1ncnc2c1ncn2[C@@H]1O[C@H](CSCC[C@H](N)C(=O)O)[C@@H](O)[C@H]1O [SAH, S-adenosyl-homocysteine]
X-ray crystal structure of the complex, 2.18 A [1]: form the binding pocket for the cofactor SAH, as shown in Figure 5B

X-ray crystal structure of the complex, 2.50 A ([2]; methyl donor, also turned over with tRNA at 65 °C, pH 7.5): PhNSun6 complexed with SAM, SFG and SAH
Structure (SMILES): C[S+](CC[C@H](N)C(=O)O)C[C@H]1O[C@@H](n2cnc3c(N)ncnc32)[C@H](O)[C@@H]1O (stereo partly drawn) [SAM, S-adenosyl-methionine]

X-ray crystal structure of the complex, 2.50 A [2]: PhNSun6 complexed with SAM, SFG and SAH
Structure (SMILES): Nc1ncnc2c1ncn2[C@@H]1O[C@H](C[C@@H](N)CC[C@H](N)C(=O)O)[C@@H](O)[C@H]1O [SFG, sinefungin]
